Starred links: 1 amine or outer side, 2 acyl side, 3 side chain; linkers in the order of their positions; H or OH if unused. Non-standard residues stand in square brackets, D forms with d. Residues, ends and D or L forms follow the SMILES beside them. Groups on a side chain read outwards from the residue. *: point of attachment. C20 diacid = O=C(O)CCCCCCCCCCCCCCCCCCC(=O)*; C18 diacid = O=C(O)CCCCCCCCCCCCCCCCC(=O)*; γGlu = O=C(O)[C@H](CCC(=O)[*:2])N[*:1]; αMeF = C[C@](N)(Cc1ccccc1)C(=O)O; AEEA = NCCOCCOCC(=O)O; Aib = CC(C)(N)C(=O)O
Experiments:
[1] = target: human glucagon receptor (hGCGR) (Homo sapiens, UniProt P47871); experiment: cAMP production (HTRF) in CHO cells expressing hGCGR; format: cell-based; design: expressed in transfected cells; conditions: Table 6, peptides modified at position 17; cAMP in CHO hGCGR cells; geometric mean; read-out: hGluc-R EC50
How it was run: (§1)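 Read-out: HTRF cAMP (anti-cAMP cryptate donor, cAMP-d2 acceptor in conjugate/lysis buffer), converted to % Delta F and fitted by 4-parameter logistic for EC50. Cell densities were 1×10^5 cells/mL (hGLP-1R) or 2×10^5 cells/mL (hGCGR). Stimulation lasted 30 min at room temperature.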

[2] = target: human GLP-1 receptor (hGLP-1R) (Homo sapiens, UniProt P43220); experiment: cAMP production (HTRF) in CHO cells expressing hGLP-1R; format: cell-based; design: expressed in transfected cells; conditions: for EC50: Table 6, peptides modified at position 17, cAMP in CHO hGLP-1R cells, geometric mean, read-out: hGLP-1R EC50; for % Relative Potency Ratio: Table 6, % GLP-1R activity relative to GLP-1 / % GlucR activity relative to glucagon
How it was run: as §1

Chain of human glucagon receptor (hGCGR) (P47871 26-477): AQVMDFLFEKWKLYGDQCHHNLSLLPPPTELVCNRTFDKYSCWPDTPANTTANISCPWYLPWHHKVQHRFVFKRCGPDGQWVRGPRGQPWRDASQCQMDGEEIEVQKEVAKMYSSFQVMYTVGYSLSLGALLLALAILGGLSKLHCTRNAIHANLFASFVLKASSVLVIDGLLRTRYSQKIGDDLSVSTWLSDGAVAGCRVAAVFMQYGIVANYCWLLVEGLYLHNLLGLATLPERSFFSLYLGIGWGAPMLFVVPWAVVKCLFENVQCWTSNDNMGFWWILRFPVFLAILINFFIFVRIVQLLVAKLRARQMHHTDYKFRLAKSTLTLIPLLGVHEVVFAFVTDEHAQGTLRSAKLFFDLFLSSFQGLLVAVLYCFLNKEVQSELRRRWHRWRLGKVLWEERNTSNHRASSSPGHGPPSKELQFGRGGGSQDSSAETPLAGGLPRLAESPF
Chain of human GLP-1 receptor (hGLP-1R) (P43220 24-463): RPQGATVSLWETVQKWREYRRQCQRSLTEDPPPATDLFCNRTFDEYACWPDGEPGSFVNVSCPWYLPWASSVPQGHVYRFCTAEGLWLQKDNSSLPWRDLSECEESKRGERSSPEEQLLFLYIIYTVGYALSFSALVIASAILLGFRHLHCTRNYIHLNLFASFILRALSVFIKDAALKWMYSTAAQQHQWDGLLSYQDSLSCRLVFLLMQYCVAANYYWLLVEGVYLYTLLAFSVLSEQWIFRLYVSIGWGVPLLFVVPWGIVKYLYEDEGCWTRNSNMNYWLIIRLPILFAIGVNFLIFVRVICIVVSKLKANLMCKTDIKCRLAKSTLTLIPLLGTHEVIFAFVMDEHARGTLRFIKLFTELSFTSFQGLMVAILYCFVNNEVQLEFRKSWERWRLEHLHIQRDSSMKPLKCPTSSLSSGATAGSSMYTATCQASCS

Compound | EC50 [1] [pM] | EC50 [2] [pM] | % Relative Potency Ratio [2]
CC(C)C[C@H](NC(=O)[C@H](Cc1c[nH]c2ccccc12)NC(=O)[C@H](CCCNC(=N)N)NC(=O)[C@@H](NC(=O)[C@H](Cc1ccccc1)NC(=O)[C@H](CC(=O)O)NC(=O)[C@H](CCCNC(=N)N)NC(=O)[C@H](C)NC(=O)[C@H](CCCNC(=N)N)NC(=O)[C@H](CCCCNC(=O)COCCOCCNC(=O)COCCOCCNC(=O)CC[C@H](NC(=O)CCCCCCCCCCCCCCCCC(=O)O)C(=O)O)NC(=O)[C@H](CCCCN)NC(=O)[C@H](CC(=O)O)NC(=O)[C@H](CC(C)C)NC(=O)[C@](C)(Cc1ccccc1)NC(=O)[C@H](CCCCN)NC(=O)[C@H](CO)NC(=O)[C@@H](NC(=O)[C@H](CC(=O)O)NC(=O)[C@H](CO)NC(=O)[C@@H](NC(=O)[C@H](Cc1ccccc1)NC(=O)[C@@H](NC(=O)CNC(=O)[C@H](CCC(N)=O)NC(=O)C(C)(C)NC(=O)[C@@H](N)Cc1c[nH]cn1)[C@@H](C)O)[C@@H](C)O)C(C)C)C(C)C)C(=O)N[C@@H](CC(C)C)C(=O)NC(C)(C)C(=O)N[C@@H](CCC(=O)O)C(=O)O [Peptide 414] (H-H[Aib]QGTFTSDVSK[αMeF]LDKK([AEEA-AEEA-γGlu-C18 diacid])RARDFVRWLL[Aib]E-OH; N-terminus assumed) | 26.9 | 32.3 | 1.6
CC(C)C[C@H](NC(=O)[C@H](Cc1c[nH]c2ccccc12)NC(=O)[C@H](CCCNC(=N)N)NC(=O)[C@@H](NC(=O)[C@H](Cc1ccccc1)NC(=O)[C@H](CC(=O)O)NC(=O)[C@H](CCC(N)=O)NC(=O)[C@H](C)NC(=O)[C@H](CCCNC(=N)N)NC(=O)[C@H](CCCCNC(=O)COCCOCCNC(=O)COCCOCCNC(=O)CC[C@H](NC(=O)CCCCCCCCCCCCCCCCC(=O)O)C(=O)O)NC(=O)[C@H](CO)NC(=O)[C@H](CCC(=O)O)NC(=O)[C@H](CC(C)C)NC(=O)[C@](C)(Cc1ccccc1)NC(=O)[C@H](CCCCN)NC(=O)[C@H](CO)NC(=O)[C@@H](NC(=O)[C@H](CC(=O)O)NC(=O)[C@H](CO)NC(=O)[C@@H](NC(=O)[C@H](Cc1ccccc1)NC(=O)[C@@H](NC(=O)CNC(=O)[C@H](CCC(N)=O)NC(=O)C(C)(C)NC(=O)[C@@H](N)Cc1c[nH]cn1)[C@@H](C)O)[C@@H](C)O)C(C)C)C(C)C)C(=O)N[C@@H](CCC(=O)O)C(=O)N[C@@H](C)C(=O)NC(C)(C)C(=O)NCC(=O)O [Peptide 415] (H-H[Aib]QGTFTSDVSK[αMeF]LESK([AEEA-AEEA-γGlu-C18 diacid])RAQDFVRWLEA[Aib]G-OH; N-terminus assumed) | 301 | 14.7 | 40.6
CC(C)C[C@H](NC(=O)[C@H](Cc1c[nH]c2ccccc12)NC(=O)[C@H](CCCNC(=N)N)NC(=O)[C@@H](NC(=O)[C@H](Cc1ccccc1)NC(=O)[C@H](CC(=O)O)NC(=O)[C@H](CCC(N)=O)NC(=O)[C@H](C)NC(=O)[C@H](CCCNC(=N)N)NC(=O)[C@H](CCCCNC(=O)COCCOCCNC(=O)COCCOCCNC(=O)CC[C@H](NC(=O)CCCCCCCCCCCCCCCCCCC(=O)O)C(=O)O)NC(=O)[C@H](CO)NC(=O)[C@H](CCC(=O)O)NC(=O)[C@H](CC(C)C)NC(=O)[C@](C)(Cc1ccccc1)NC(=O)[C@H](CCCCN)NC(=O)[C@H](CO)NC(=O)[C@@H](NC(=O)[C@H](CC(=O)O)NC(=O)[C@H](CO)NC(=O)[C@@H](NC(=O)[C@H](Cc1ccccc1)NC(=O)[C@@H](NC(=O)CNC(=O)[C@H](CCC(N)=O)NC(=O)C(C)(C)NC(=O)[C@@H](N)Cc1c[nH]cn1)[C@@H](C)O)[C@@H](C)O)C(C)C)C(C)C)C(=O)N[C@@H](CCC(=O)O)C(=O)N[C@@H](C)C(=O)NC(C)(C)C(=O)NCC(=O)O [Peptide 416] (H-H[Aib]QGTFTSDVSK[αMeF]LESK([AEEA-AEEA-γGlu-C20 diacid])RAQDFVRWLEA[Aib]G-OH; N-terminus assumed) | 581 | 67.7 | 17.0
CC(C)C[C@H](NC(=O)[C@H](Cc1c[nH]c2ccccc12)NC(=O)[C@H](C)NC(=O)[C@@H](NC(=O)[C@H](Cc1ccccc1)NC(=O)[C@H](CC(=O)O)NC(=O)[C@H](CCC(N)=O)NC(=O)[C@H](C)NC(=O)[C@H](CCCNC(=N)N)NC(=O)[C@H](CCCCNC(=O)COCCOCCNC(=O)COCCOCCNC(=O)CC[C@H](NC(=O)CC[C@H](NC(=O)CCCCCCCCCCCCCCCCC(=O)O)C(=O)O)C(=O)O)NC(=O)[C@@H](NC(=O)[C@H](CC(=O)O)NC(=O)[C@H](CC(C)C)NC(=O)[C@](C)(Cc1ccccc1)NC(=O)[C@H](CCCCN)NC(=O)[C@H](CO)NC(=O)[C@@H](NC(=O)[C@H](CC(=O)O)NC(=O)[C@H](CO)NC(=O)[C@@H](NC(=O)[C@H](Cc1ccccc1)NC(=O)[C@@H](NC(=O)CNC(=O)[C@H](CCC(N)=O)NC(=O)C(C)(C)NC(=O)[C@@H](N)Cc1c[nH]cn1)[C@@H](C)O)[C@@H](C)O)C(C)C)[C@@H](C)O)C(C)C)C(=O)N[C@@H](CCC(=O)O)C(=O)N[C@@H](C)C(=O)NC(C)(C)C(=O)NCC(=O)O [Peptide 417] (H-H[Aib]QGTFTSDVSK[αMeF]LDTK([AEEA-AEEA-γGlu-γGlu-C18 diacid])RAQDFVAWLEA[Aib]G-OH; N-terminus assumed) | 16.4 | 33.9 | 1.0
CC(C)C[C@H](NC(=O)[C@H](Cc1c[nH]c2ccccc12)NC(=O)[C@H](C)NC(=O)[C@@H](NC(=O)[C@H](Cc1ccccc1)NC(=O)[C@H](CC(=O)O)NC(=O)[C@H](CCC(N)=O)NC(=O)[C@H](C)NC(=O)[C@H](CCCNC(=N)N)NC(=O)[C@H](CCCCNC(=O)COCCOCCNC(=O)COCCOCCNC(=O)CC[C@H](NC(=O)CC[C@H](NC(=O)CCCCCCCCCCCCCCCCCCC(=O)O)C(=O)O)C(=O)O)NC(=O)[C@@H](NC(=O)[C@H](CC(=O)O)NC(=O)[C@H](CC(C)C)NC(=O)[C@](C)(Cc1ccccc1)NC(=O)[C@H](CCCCN)NC(=O)[C@H](CO)NC(=O)[C@@H](NC(=O)[C@H](CC(=O)O)NC(=O)[C@H](CO)NC(=O)[C@@H](NC(=O)[C@H](Cc1ccccc1)NC(=O)[C@@H](NC(=O)CNC(=O)[C@H](CCC(N)=O)NC(=O)C(C)(C)NC(=O)[C@@H](N)Cc1c[nH]cn1)[C@@H](C)O)[C@@H](C)O)C(C)C)[C@@H](C)O)C(C)C)C(=O)N[C@@H](CCC(=O)O)C(=O)N[C@@H](C)C(=O)NC(C)(C)C(=O)NCC(=O)O [Peptide 418] (H-H[Aib]QGTFTSDVSK[αMeF]LDTK([AEEA-AEEA-γGlu-γGlu-C20 diacid])RAQDFVAWLEA[Aib]G-OH; N-terminus assumed) | 222 | 88.1 | 5.0
CC(C)C[C@H](NC(=O)[C@H](Cc1c[nH]c2ccccc12)NC(=O)[C@H](CCCNC(=N)N)NC(=O)[C@@H](NC(=O)[C@H](Cc1ccccc1)NC(=O)[C@H](CC(=O)O)NC(=O)[C@H](CCC(N)=O)NC(=O)[C@H](C)NC(=O)[C@H](CCCNC(=N)N)NC(=O)[C@H](CCCCNC(=O)COCCOCCNC(=O)COCCOCCNC(=O)CC[C@H](NC(=O)CCCCCCCCCCCCCCCCC(=O)O)C(=O)O)NC(=O)[C@@H](NC(=O)[C@H](CC(=O)O)NC(=O)[C@H](CC(C)C)NC(=O)[C@](C)(Cc1ccccc1)NC(=O)[C@H](CCCCN)NC(=O)[C@H](CO)NC(=O)[C@@H](NC(=O)[C@H](CC(=O)O)NC(=O)[C@H](CO)NC(=O)[C@@H](NC(=O)[C@H](Cc1ccccc1)NC(=O)[C@@H](NC(=O)CNC(=O)[C@H](CCC(N)=O)NC(=O)C(C)(C)NC(=O)[C@@H](N)Cc1c[nH]cn1)[C@@H](C)O)[C@@H](C)O)C(C)C)[C@@H](C)O)C(C)C)C(=O)N[C@@H](CCC(=O)O)C(=O)NC(C)(C)C(=O)N[C@@H](CCC(=O)O)C(=O)O [Peptide 419] (H-H[Aib]QGTFTSDVSK[αMeF]LDTK([AEEA-AEEA-γGlu-C18 diacid])RAQDFVRWLE[Aib]E-OH; N-terminus assumed) | 264 | 96.9 | 5.4
